Results on one compound are retold here after patent US20160296511A1, “LAQUINIMOD FOR REDUCING THALAMIC DAMAGE IN MULTIPLE SCLEROSIS” (Teva Pharmaceutical Industries, Ltd., priority 2012, published 2016).

In one assay the test system is subjects with RRMS. As to the kind of experiment: ALLEGRO sub-study: 1H-MRS, NAA/Cr ratio in WM. The assay is classed as in vivo, human. The note with it: at 24 months; difference vs placebo not statistically significant (p=0.179), N=27. The method, then:
• 1. Frequent MRI (selected countries and sites only): The cumulative number of T1-Gd enhancing lesions taken from scans obtained at months 0, 3, 6, 12, and 24, and in case the study is be extended, 30. Additional MRIs for the ancillary study are performed at months 3 and 6. • 2. Magnetization Transfer (MT) (selected countries and sites only): the change from baseline to month 12 and 24/30 months in magnetization transfer MRI. MT was assessed at months 0 (baseline), 12 and 24 (termination/early discontinuation). In case of the 6 months extended study, the last MT was performed at month 30 (termination/early discontinuation of the extended study) instead of month 24. • 3. Proton MR Spectroscopy (^1H-MRS) (selected countries and sites only): Change from baseline to 24/30 in ^1H-MRS metabolites. ^1H-MRS was assessed at months 0 (baseline), and 24 (termination/early discontinuation). In case of the 6 months extended study, the last ^1H-MRS was performed at month 30 (termination/early discontinuation of the extended study) instead of month 24. • 4. Pharmacogenetic (PGx) assessment: Blood samples for PGx parameters were collected from all subjects at screening. • 5. […] Changes in NAA/Cr from baseline to month 24 was analyzed using ANCOVA.

The test system of assay [1] is subject afflicted by tremor or spasticity. As to the kind of experiment: Example 3: oral laquinimod in treating tremor and spasticity. Type of assay: in vivo. The method, then: A composition comprising laquinimod as described herein is administered to a subject afflicted by tremor. […] A composition comprising laquinimod as described herein is administered to a subject afflicted by tremor. […] A composition comprising laquinimod as described herein is administered to a subject afflicted by spasticity. […] A composition comprising laquinimod as described herein is administered to a subject afflicted by tremor.

Entries after “also recorded” stand apart in the source; their conditions may differ.

Turning to `CCN(C(=O)c1c(O)c2c(Cl)cccc2n(C)c1=O)c1ccccc1` [Laquinimod], in the assay with subjects with RRMS, the “WM NAA/Cr ratio” value is listed as “tended to increase”. Also, the “Spasticity in the subject” value in assay [1] (subject afflicted by spasticity) was “effective to inhibit spasticity; also recorded: effective to reduce spasticity”. Besides, the “Tremor in the subject” value in assay [1] (subject afflicted by tremor) is given as “effective to inhibit tremor; also recorded: effective to reduce tremor”.
